# Ends that are not written are not given here.
# Tests used:
# recombinant HIV-1 gp120 = conditions: rabbits immunized with peptide conjugated to KLH, FIG. 21
# Method: Antisera was obtained and tested for binding to recombinant HIV-1 gp120 peptide-coated radioimmunoassay plates (using 1 μg/ml gp120 at 50 μl/well, in 0.1 M NaHCO3 and incubating overnight at 4° C.). The indicator antibody was ^125I-labelled anti-rabbit immunoglobulin antibody.
# [1] = tested on: recombinant glycosylated gp120; conditions: radiolabelled immunoprecipitations
# Method: The immunogenicity of B138 was determined by subcutaneous immunization of mice and rabbits.
# HIV [2] = assay: Blocking of virus binding by gp120 421-438 peptide
# Text: A molecular model for the region 413-455 (FIG. 19) may be constructed based upon these structural concepts, utilizing a light-chain antibody structure known as REI (Bernstein et al., 1977, Mol. Biol. 112:535-542) as a template for the first and third hypervariable region, in which the cysteines in gp120 at positions 418 and 445 form a disulfide bridge. The cysteines are positionally conserved with respect to each other as in the light chain. The model may be energy optimized using molecular mechanics and dynamics. […] The in vitro biological activity of the 421-438 peptide fragment in modulating CD4-depending cellular function and this fragment's ability to induce an anti-HIV response is as described below.
# HIV [3] = assay: Infectivity assays with rabbit antisera; conditions: in vivo
# […]-infected H9 cells = Flow cytometry: mouse antisera binding to infected H9 cells; assay type: in vivo; conditions: subcutaneous immunization of mice
# type 3 virus = tested on: type 3 virus; parameters: species or system Balb/c mice; conditions: mouse, in vivo
# reovirus type 1 [4] = tested on: reovirus type 1; parameters: species or system Balb/c mice; conditions: mouse, in vivo
# type 1 virus = tested on: type 1 virus; parameters: species or system Balb/c mice; conditions: mouse, in vivo
# reovirus type 3 [5] = tested on: reovirus type 3; parameters: species or system Balb/c mice; conditions: mouse, in vivo
# reovirus type 1 [6] = tested on: reovirus type 1; parameters: species or system Balb/c mice; conditions: mouse, in vivo; remark: listed apart in the source
# [7] = tested on: neutralizing monoclonal antibody 9BG5; assay type: binding, mouse
# reovirus type 3 [8] = tested on: reovirus type 3; parameters: species or system Balb/c mice; conditions: mouse, in vivo; remark: listed apart in the source
# reovirus type 3 [9] = tested on: reovirus type 3; parameters: species or system mice; conditions: mouse, in vivo
# Reo3R = assay: Inhibition of 125I-labelled reovirus type 3 binding to the Reo3R on cells
# Method: The cells were centrifuged and washed twice in 1% BSA/PBS/0.1% NaN3. 5×10^4 cells or 1.25×10^6 R1.1 cells in 50 μl were distributed in 2% BSA/PBS/NaN3 blocked RIA wells. For peptide studies, 50 μl of inhibitor was added in dH2O to the cells. Following a 30 minute incubation, L cells and ^125I-labelled reovirus type 3 were combined for an additional 30 minutes at 37° C. The cells were spun, washed three times in ice cold PBS, and specific CPM bound was determined as noted above. Percent inhibition of binding was calculated by the formulae above.
# To further evaluate the interaction of VLC9C16 peptide with the Reo3R, the peptide was utilized to compete with ^125I-labelled reovirus type 3 for binding to the Reo3R.
# [10] = Rate of loss of sulfhydryls on air oxidation (Ellman determination); assay type: physicochemical; conditions: 2 mg/ml in 0.1 M NaHCO3, 37° C., exposed to air, FIG. 23
# [11] = tested on: reovirus type 3 receptor (Reo3R); assay: Flow cytometry: inhibition of 87.92.6 binding to cells; parameters: species or system murine; conditions: FIG. 29
# Method: The ability of peptides to inhibit antibody binding to cells was determined by preincubation of the cells with varying amounts of inhibitor (in 100 μl dH2O) for between 30 minutes and 1 hour at 23° C. Cells (either L cells or R1.1 cells) were washed in 1% BSA/PBS/0.1% NaN3, and resuspended at 10^7/ml. 100 μl of cells were then added in 1% BSA/PBS/0.1% NaN3, and the incubation continued for 20-30 minutes. Antibodies (5 or 10 μl were added for an additional 20 minutes at 23° C. Ice cold 1% BSA/PBS/0.1% NaN3, was added, the cells centrifuged and washed prior to counterstaining with a 1:100 dilution of FITC goat anti-mouse Ig (Fisher Scientific) in 1% BSA/PBS/0.1% NaN3. The cells were washed twice and fluorescence intensity determined. Inhibition of binding was calculated as noted above with mean channel number utilized in place of CPM.
# To assess the affinity of the cyclic peptides for the reovirus type 3 receptor (Reo3R), they were utilized in a series of assays to inhibit binding of 87.92.6 or control antibodies to specific receptors. […] The inhibition by VLC9C16 peptide was specific as binding of isotype matched monoclonal H013.4 to Thy2 molecules was not inhibited by VLC9C16 peptide (FIG. 30). Thus, VLC9C16 peptide is a specific Reo3R ligand with enhanced affinity compared with its linear analog.
# [12] = Size-exclusion chromatography of oxidized peptides (Sephadex G-10); assay type: physicochemical; conditions: reduced versus non-reduced peptides
# 9B.G5 [13] = assay: Competitive RIA: inhibition of 9B.G5 - 87.92.6 interaction; assay type: binding
# 9B.G5 [14] = assay: Competitive RIA: inhibition of 9B.G5 - reovirus type 3 interaction; assay type: binding
# 9B.G5 [15] = assay: Solid phase RIA: binding of 9B.G5 to peptide coated plates; conditions: FIG. 24
# Method: RIA plates (Dynatech Laboratories, Alexandria, Va.) were coated with peptides by evaporation of varying amounts of peptides in distilled water overnight at 37° C. The wells were washed with PBS, blocked with 2% bovine serum albumin (BSA) in PBS with 0.1% NaN3, and washed with PBS. Partially purified 9BG5 [(NH4)2SO4 precipitate] was added at varying dilutions for greater than 1 hour at 37° C. The wells were washed in PBS and 50,000-100,000 counts per minute of ^125I-labelled goat anti-mouse light chain (anti-k & anti-[Sigma] iodinated by chloramine T) was added per well in 1% BSA in PBS for 1-2 hours at 37° C. The wells were decanted, washed extensively, and CPM bound determined. Specific CPM bound was determined by subtracting the CPM bound to uncoated wells from the CPM bound to peptide coated wells.
# To assess the optimal conformation for binding of the VL peptide analogs, they were utilized to coat radioimmunoassay (RIA) plates, and 9B.G5 bound by standard RIA procedures.
# Thy2 molecules = target: T1, Thy2 molecules (Mus musculus, UniProt P01831); assay: Flow cytometry: inhibition of H013.4 binding (specificity); parameters: species or system murine; conditions: FIG. 30
# T1 sequence (P01831 20-131): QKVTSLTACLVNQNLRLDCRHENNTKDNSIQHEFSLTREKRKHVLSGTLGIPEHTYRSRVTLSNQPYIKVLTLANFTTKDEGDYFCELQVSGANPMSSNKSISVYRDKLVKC
substance,measurement,setting,value
KQFINMWQEVGKAMYAPP [B138],level of antiserum antibody bound to gp120 coated plates,recombinant HIV-1 gp120,lower levels of bound antibody
same,immunoprecipitation of recombinant glycosylated gp120 by rabbit antisera,[1],weakly
same,blocking of virus binding,HIV [2],shown to block virus binding
same,elicitation of neutralizing antibodies (infectivity assays with rabbit sera),HIV [3],could elicit neutralizing antibodies
same,binding of mouse antisera to infected H9 cells,[…]-infected H9 cells,preferentially bind
"Gln Ser Met --- Trp Ile Gly Ile Val Ser Tyr Ser Gly Ser Gly Leu Asn (WIGIVSYSGSGLN; N-terminal Gln-Ser-Met; printed: Trp Ile Gly Ile Val Ser Tyr Ser Gly Ser Gly Leu Asn) [reo peptide, amino acids 317-332 in the type 3 viral hemagglutinin]",inhibition of plaque formation by type 3 virus by immune serum,type 3 virus,specific inhibition of plaque formation
same,binding of immune serum to type 1 virus coated plates,reovirus type 1 [4],significant binding
same,inhibition of plaque formation by type 1 virus by immune serum,type 1 virus,not type 1
same,binding of immune serum to type 3 virus coated plates,reovirus type 3 [5],significant binding
same,neutralization of L-cell lysis by reovirus type 1 by immune serum,reovirus type 1 [6],not type 1
same,specific binding of 9BG5 to peptide coated wells,[7],Strong reproducible binding
same,neutralization of L-cell lysis by reovirus type 3 by immune serum,reovirus type 3 [8],specifically neutralized
same,proliferative response to reovirus type 3 in spleen cells from immunized mice,reovirus type 3 [9],type specific proliferative response
KPGKTNKLCIYSGSTCQ (cysteine pairing not given here) [VLC9C16 peptide],affinity for the Reo3R by competition with 125I-labelled reovirus type 3,Reo3R; FIG. 31,higher affinity for the Reo3R than VLC8C16 peptide or VLC10C16 peptide
same,increase in affinity for the Reo3R compared with linear VL peptide,Reo3R; competition with 125I-labelled reovirus type 3,40 fold
same,rate of loss of sulfhydryls,[10],most rapid loss of sulfhydryls
same,inhibition of binding of 87.92.6 to murine L cells,[11]; L cells,inhibited binding
same,inhibition of binding of 87.92.6 to R1.1 thymoma cells,[11]; R1.1 cells,inhibited binding
same,molecular form following oxidation by size-exclusion chromatography,[12],remained chiefly as monomers
same,increase in binding affinity for 9B.G5 compared with linear analog of VL peptide,"9B.G5 [13]; inhibition of 9B.G5 - 87.92.6 interaction, FIG. 26",40 fold
same,inhibition of 9B.G5 - 87.92.6 interaction,"9B.G5 [13]; liquid phase assay, FIGS. 25 and 26",higher affinity of interaction compared with the other cyclic peptide variants
same,"inhibition of binding of 125I-labelled reovirus type 3 to 9B.G5, compared with other cyclic peptides",9B.G5 [14]; FIG. 27,higher affinity than the other cyclic peptides
same,"inhibition of binding of 125I-labelled reovirus type 3 to 9B.G5, compared with linear VL and dimeric VLSH peptide",9B.G5 [14]; FIG. 28,"higher affinity than linear VL peptide, and similar affinity on a molar basis as dimeric VLSH peptide"
same,binding of 9B.G5 to peptide on solid phase RIA,9B.G5 [15],higher than binding to the other cyclic VL peptide analogs
same,inhibition of binding of isotype matched monoclonal H013.4,Thy2 molecules,not inhibited

# Reference: patent publication US6372884B1, “Biologically active compounds and methods of constructing and using the same” (priority 1987, dated 2002)
